Experiments:
[1] = system: Plasmodium falciparum; assay: In vitro inhibitory activity against Plasmodium falciparum D6; type: functional, organism-based
[2] = system: CFU-GM; assay: In vitro toxicity against human bone marrow stem cells(CFU-GM) at a dose of 10.0 uM; activity expressed as average colony count; type: functional
[3] = system: CFU-GM; assay: In vitro toxicity against human bone marrow stem cells (CFU-GM) in the absence (control); activity expressed as average colony count; type: functional, Bone element
[4] = system: CFU-GM; assay: In vitro toxicity against human bone marrow stem cells(CFU-GM) at a dose of 0.1 uM; activity expressed as average colony count; type: functional
[5] = system: CFU-GM; assay: In vitro toxicity against human bone marrow stem cells(CFU-GM) at a dose of 1.0 uM; activity expressed as average colony count; type: functional
[6] = system: CFU-GM; assay: In vitro toxicity against human bone marrow stem cells(CFU-GM) at a dose of 100.0 uM; activity expressed as average colony count; type: functional
[7] = system: CFU-GM; assay: In vitro toxicity against human bone marrow stem cells(CFU-GM) at a dose of 5.0 uM; activity expressed as average colony count; type: functional
[8] = system: CFU-GM; assay: In vitro toxicity against human bone marrow stem cells(CFU-GM) in the absence (control); activity expressed as average colony count; type: functional

Structure (SMILES) | IC50 [1] [nM] | other results
O=C1c2ccccc2C(=O)c2c(O)c(O)cc(O)c21 [PURPURIN] | > 1000 | –
O=C1c2cc(O)c(O)c(O)c2C(=O)c2cc(O)c(O)c(O)c21 | 35 | Average colony count [2]: 36; Average colony count [3]: 56; Average colony count [4]: 61; Average colony count [5]: 57; Average colony count [6]: 5; Average colony count [7]: 47
COc1cc2c(cc1OC)C(=O)c1cc(OC)c(OC)cc1C2=O | ≥ 5000 | –
COc1c(Br)c2c(c(OC)c1OC)C(=O)c1c(Br)c(OC)c(OC)c(OC)c1C2=O | ≥ 5000 | –
COc1cc2c(c(OC)c1OC)C(=O)c1cc(OC)c(OC)c(OC)c1C2=O | ≥ 5000 | –
O=C1c2cccc(O)c2C(=O)c2cccc(O)c21 [ANTHRARUFIN] | > 1000 | –
COc1c(OC)c(OC)c2c(c1OC)C(=O)c1c(OC)c(OC)c(OC)c(OC)c1C2=O | ≥ 5000 | –
CCN(CC)CCCC(C)Nc1ccnc2cc(Cl)ccc12 (centres undefined) [CHLOROQUINE] | – | Average colony count [2]: 48; Average colony count [8]: 56; Average colony count [4]: 56; Average colony count [5]: 54; Average colony count [6]: 5; Average colony count [7]: 54
O=C1c2ccccc2C(=O)c2ccccc21 [ANTHRAQUINONE] | 5000 | –

Second part, led by results:

IC50 [1] [nM] | Structure (SMILES) | other results
300 | O=C1c2cc(O)c(O)cc2C(=O)c2cc(O)c(O)cc21 | –
> 1000 | O=C1c2ccc(O)cc2C(=O)c2ccc(O)cc21 [ANTHRAFLAVICACID] | –
800 | O=C1c2c(O)c(O)c(O)c(O)c2C(=O)c2c(O)c(O)c(O)c(O)c21 | –
5000 | O=C1c2c(O)c(O)c(O)c(Br)c2C(=O)c2c(O)c(O)c(O)c(Br)c21 | –
